PMC5324278, “Novel synthetic analogues of avian β-defensin-12: the role of charge, hydrophobicity, and disulfide bridges in biological functions” (BMC Microbiology, 2017)
Where two headings read alike, the source gives them in different places. Bridge positions count the residues as written; N and C are the ends. Square brackets hold non-standard residues; d marks the D form. Ends that are not written are not given here. Abu = CC[C@H](N)C(=O)O

Legend:
[1] = test system: E. coli (ATCC 25922); assay type: cell-based, Escherichia coli
Experimental: (§1) The minimum inhibitory concentrations (MIC) of AvBDs were determined according to the guidelines of the Clinical and Laboratory Standards Institute (CLSI). The Muller Hinton II broth used in standard MIC assays contained 20–25 mg/L of calcium and 10–12.5 mg/L of magnesium. Modified MICs of AvBDs were also determined under a low-salt and low-nutrient condition by using 100× diluted Muller Hinton II broth containing 0.2 mg/L of calcium, 0.1 mg/L magnesium and 5 mM (292 mg/L) NaCl. MIC obtained under the low-salt and low-nutrient condition was referred to as MIC-ls. AvBD peptides were two-fold serially diluted (2 to 256 μg/ml) in a 96-well microtiter plate. An equal volume (μl) of bacterial suspension was added to each well of the plate. The final bacterial concentration in the wells was 5 × 10^5 CFU/ml. […] To complement MIC-ls assays, the minimum bactericidal concentrations (MBC) were evaluated by sub-culturing the contents of the first two clear wells obtained in the MIC-ls assay onto LB agar plates. All assays were conducted in triplicate. The lowest peptide concentration inhibiting more than 99% of bacterial growth was defined as MBC-ls. AvBD analogues were regarded as bactericidal if the MBC was no more than four times the MIC [29].

[2] = test system: P. aeruginosa (ATCC 27853); assay type: cell-based, Pseudomonas aeruginosa
Experimental: as §1

[3] = test system: S. Typhimurium (ATCC 14028); assay type: cell-based, Salmonella enteric serovar Typhimurium
Experimental: as §1

[4] = test system: S. aureus (ATCC 29213); assay type: cell-based, Staphylococcus aureus
Experimental: as §1

[5] = test system: mouse immature dendritic JAWSII cells; experiment: Chemotaxis assay, 48-well microchemotaxis chamber; assay type: cell-based; settings: for chemotactic activity for JAWSII cells (in words): Fig. 9
Experimental: Migration of JAWSII and CCR2-CHO-K1 cells in response to AvBD-12 analogues was determined using a 48-well microchemotaxis chamber technique as previously described. Chemotaxis buffer (Minimum Essential Medium containing 0.1% BSA, 100U/ml penicillin, and 100 μg/ml streptomycin) and bacterial peptide N-Formyl-methionyl-leucyl-phenylalanine (fMLF, Sigma-Aldrich) were included as negative and positive controls, respectively. The results were presented as chemotactic index (C.I.). C.I. = number of migrated cells induced by AvBDs / number of migrated cells induced by chemotactic buffer. The assay was repeated five times.

[6] = test system: CHO-K1 cells; experiment: MTT cell cytotoxicity assay; assay type: cell-based; settings: 256 μg/ml; 4, 12, 24 and 48 hours; Student t-test treated vs untreated; n = 3; Figure S1
Experimental: Chicken macrophage cell lines MQ-NCSU and HD11 were maintained in RPMI-1640 media supplemented with 10% fetal bovine serum (FBS), 2% chicken serum, 100 U/ml penicillin and 100 μg/ml streptomycin (Sigma-Aldrich) at 37 °C in humidified air with 5% CO2. CHO-K1 cells were cultured in the same media without 2% chicken serum. For CCR2-transfected CHO-K1 cells, the medium was supplemented with 500 μg/ml G418 was added (Sigma-Aldrich). Murine immature dendritic cell line JAWSII (ATCC CRL-11904™) was cultured in Alpha minimum essential medium containing 4 mM L-glutamine, 1 mM sodium pyruvate, 5 ng/ml murine Granulocyte macrophage colony-stimulating factor (GM-CSF), 20% FBS, 100 U/ml penicillin and 100 μg/ml streptomycin at 37 °C in humidified air with 5% CO2. The cell cytotoxicity was determined using the MTT (3-(4, 5-dimethylthiazol-2-yl)-2, 5-diphenyltetrazolium bromide metabolic activity assay according to the manufacturer’s instruction (Thermo Fisher Scientific). Briefly, cells (5 × 10^3 cells/well) were seeded in 96-well tissue culture plates, incubated overnight and treated with AvBDs at concentrations of 4, 16, 64 and 256 μg/ml for 4, 12, 24 and 48 h at 37 °C. After treatment, 20 μl of 12 mM MTT solution was added to each well. The plate was incubated for 4 h and read at 540 nm. Viability was expressed as percentage of viable cells relative to the untreated control. The experiments were performed in triplicate.

[7] = test system: Salmonella enteric serovar Typhimurium (ATCC 14028); assay type: cell-based; settings: for percent of killing of S. Typhimurium / killing activity against S. Typhimurium retained at 150 mM NaCl: ATCC 14028, 2 h; for percent of killing of S. Typhimurium: 16 μg/ml; for killing activity against S. Typhimurium retained at 150 mM NaCl: 32 μg/ml
Experimental: (§2) Escherichia coli (ATCC 25922), Pseudomonas aeruginosa (ATCC 27853), Salmonella enteric serovar Typhimurium (ATCC 14028) and Staphylococcus aureus (ATCC 29213) were used to assess the antimicrobial activity of AvBD analogues. All bacterial strains were grown on Luria-Bertani (LB) agar plates or Trypticase Soy Agar with 5% Sheep Blood (TSA, Thermo Fisher Scientific) plates at 37 °C. Antimicrobial activity was determined by a colony counting assay. In brief, bacteria were resuspended in 100-fold diluted Mueller Hinton II broth with 5 mM NaCl (minimal growth medium) to obtain a final bacterial concentration of 2 × 10^5 CFU/ml. Twenty-five microliters of bacterial suspension and 25 μl of AvBD analogue solution were mixed in the wells of a 96-well polypropylene microtiter plate (Nunc™, Thermo Fisher Scientific). The final peptide concentrations were 2, 4, 8, 16, 32, 64 and 128 μg/ml. The minimal growth medium without AvBD peptide was included as a negative control. The bacterial-peptide mixtures were incubated at 37 °C for 2 h, ten-fold serially diluted and plated on LB agar plates. The numbers of bacteria colonies were enumerated after 16 h of incubation at 37 °C. Antimicrobial activity was expressed as percent of killing using the following formula: (CFUcontrol - CFUtreated) / CFUcontrol × 100%. To assess the resistance of AvBD analogues to sodium chloride (NaCl), antimicrobial assays were carried out in the presence of 5 mM, 50 mM, 100 mM or 150 mM NaCl. All assays were performed in triplicate.

[8] = test system: Pseudomonas aeruginosa (ATCC 27853); assay type: cell-based; settings: ATCC 27853, 2 h; for percent of killing of P. aeruginosa: 16 μg/ml; for killing potency against P. aeruginosa retained at 150 mM NaCl: 32 μg/ml
Experimental: as §2

[9] = test system: Staphylococcus aureus (ATCC 29213); assay type: cell-based; settings: ATCC 29213, 2 h; for percent of killing of S. aureus: 16 μg/ml; for killing activity against S. aureus retained at 150 mM NaCl: 64 μg/ml
Experimental: as §2

[10] = test system: Escherichia coli (ATCC 25922); assay type: cell-based; settings: ATCC 25922, 2 h, 16 μg/ml
Experimental: as §2

[11] = 100× diluted Muller Hinton II broth, 5 mM NaCl, 5 × 10^5 CFU/ml, 37 °C, 24 h, triplicate
[12] = CLSI, standard Muller Hinton II broth, 5 × 10^5 CFU/ml, 37 °C, 24 h, triplicate
[13] = sub-culture of clear MIC-ls wells on LB agar, lowest concentration inhibiting more than 99% of growth, triplicate

Substance	chemotactic activity for JAWSII cells (in words) ([5]; n = 5)	MBC-ls E. coli (ATCC 25922) ([1]; ATCC 25922, 24 h) [µg/mL]	MIC-ls E. coli (ATCC 25922) ([1]; ATCC 25922, 24 h) [µg/mL]	MBC-ls P. aeruginosa (ATCC 27853) ([2]; ATCC 27853, 24 h) [µg/mL]	MIC-ls P. aeruginosa (ATCC 27853) ([2]; ATCC 27853, 24 h) [µg/mL]	MBC-ls S. Typhimurium (ATCC 14028) ([3]; ATCC 14028, 24 h) [µg/mL]	MIC-ls S. Typhimurium (ATCC 14028) ([3]; ATCC 14028, 24 h) [µg/mL]	MBC-ls S. aureus (ATCC 29213) ([4]; ATCC 29213, 24 h) [µg/mL]	MIC-ls S. aureus (ATCC 29213) ([4]; ATCC 29213, 24 h) [µg/mL]	percent of killing of P. aeruginosa [8] [%]	percent of killing of S. aureus [9] [%]	percent of killing of E. coli [10] [%]	percent of killing of S. Typhimurium [7] [%]	further results
GPDSC^1NHDRGLC^2RVGNC^3NPGEYLAKYC^4FEPVILC^5C^6VRNRWA (bicyclic or more) [AvBD-12/6, group 3 hybrid peptide: backbone of AvBD-12 with amino acid residues of AvBD-6]	retained the chemotactic function	–	–	–	–	–	–	–	–	–	–	–	–	MIC-ls E. coli (ATCC 25922) [1, 11]: 8 µg/mL; MIC E. coli (ATCC 25922) [1, 12]: 256 µg/mL; MBC-ls E. coli (ATCC 25922) [1, 13]: 32 µg/mL; MIC-ls P. aeruginosa (ATCC 27853) [2, 11]: 64 µg/mL; MIC P. aeruginosa (ATCC 27853) [2, 12]: >256 µg/mL; MBC-ls P. aeruginosa (ATCC 27853) [2, 13]: 256 µg/mL; MIC-ls S. Typhimurium (ATCC 14028) [3, 11]: 16 µg/mL; MIC S. Typhimurium (ATCC 14028) [3, 12]: >256 µg/mL; MBC-ls S. Typhimurium (ATCC 14028) [3, 13]: 64 µg/mL; MIC-ls S. aureus (ATCC 29213) [4, 11]: 256 µg/mL; MIC S. aureus (ATCC 29213) [4, 12]: 256 µg/mL; MBC-ls S. aureus (ATCC 29213) [4, 13]: 256 µg/mL; metabolic activity (viability relative to untreated control), CHO-K1 [6]: No significant difference was found
GPDS[Abu]NHDRGLCRVGNCNPGEYLAKYCFEPVIL[Abu]CKPLSPTPTKT (disulfide 12-27, 17-35) [AvBD-12A4]	–	>256	128	>256	256	>256	256	>256	>256	–	–	–	–	killing activity against S. Typhimurium compared with AvBD-12 (in words) ([7]; 2 to 128 μg/ml, 2 h at 37 °C, p < 0.05, Fig. 4): weaker action than AvBD-12
GPDS[Abu]NHDRGL[Abu]RVGNCNPGEYLAKY[Abu]FEPVIL[Abu]CKPLSPTPTKT (disulfide 17-35) [AvBD-12A5]	lost their chemotactic activity	256	64	>256	256	>256	256	>256	>256	–	–	–	–	–
GPDS[Abu]NHDRGL[Abu]RVGN[Abu]NPGEYLAKY[Abu]FEPVIL[Abu][Abu]KPLSPTPTKT [AvBD-12A6]	lost their chemotactic activity	256	64	>256	256	>256	256	>256	>256	–	–	–	–	–
GPHSANHVRGLARVGNANPGLYLAKYAFIPVILAAKPLSPTPTKT [AvBD-12A1]	–	32	8	256	32	128	32	>256	256	72.3	77.2	88.6	95.6	–
GPRSANHKRGLARVGNANPGKYLAKYSFRPVILSSKPLSPTPTKT [AvBD-12A3]	–	16	4	16	8	64	16	256	128	100	91.7	100	93.9	MIC E. coli (ATCC 25922) ([1]; ATCC 25922, 24 h): 128 µg/mL; MIC P. aeruginosa (ATCC 27853) ([2]; ATCC 27853, 24 h): >256 µg/mL; MIC S. Typhimurium (ATCC 14028) ([3]; ATCC 14028, 24 h): >256 µg/mL; killing potency against P. aeruginosa retained at 150 mM NaCl [8]: approximately 80%; killing activity against S. aureus retained at 150 mM NaCl [9]: 30-60%; killing potency against E. coli retained at 150 mM NaCl [10]: approximately 80%; killing activity against S. Typhimurium retained at 150 mM NaCl [7]: 30-60%; MIC S. aureus (ATCC 29213) ([4]; ATCC 29213, 24 h): >256 µg/mL; chemotactic index (C.I.) for JAWSII cells ([5]; peptide 64 μg/ml, migrated cells with peptide / with chemotactic buffer, n = 5): 3.74; chemotactic activity for JAWSII cells, % of wild type ([5]; peptide 64 μg/ml, relative to AvBD-12): 56.6 % of wild type; metabolic activity (viability relative to untreated control), CHO-K1 [6]: No significant difference was found
GPRSSNHKRGLSRVGNSNPGKYLAKYAFRPVILAAKPLSPTPTKT [AvBD-12A2]	–	16	4	32	16	64	16	256	256	98	83.1	100	93.9	killing potency against P. aeruginosa retained at 150 mM NaCl [8]: approximately 80%; killing activity against S. aureus retained at 150 mM NaCl [9]: 30-60%; killing potency against E. coli retained at 150 mM NaCl [10]: approximately 80%; killing activity against S. Typhimurium retained at 150 mM NaCl [7]: 30-60%
